ChEMBL document CHEMBL3885861, “Open TG-GATES”

Species on record: Rattus norvegicus
Assay: Open TG-GATES - Regimen: Daily Repeat
Format: toxicity, organism-based, Sprague-Dawley
Set-up: regimen Daily Repeat, gender Male, age 6 weeks
Settings: in vivo, po, route gavage; for APTT / Bas / Eos / Fbg / Hb / Ht / Lym / MCH / MCHC / MCV / Mono / Neu / PT / Plat / RBC / Ret / WBC: tissue Blood; for KIDNEY_L / KIDNEY_R / KIDNEY_TOTAL: tissue Kidney; for LIVER: tissue Liver; for A/G / ALP / ALT / AST / BUN / CRE / Ca / Cl / DBIL / GLC / IP / K / LDH / Na / PL / RALB / TBIL / TC / TG / TP / gamma-GTP: tissue Plasma
[1] = 300 mg/kg, 72 h, dose level Middle, time 3 day
[2] = 300 mg/kg, […], dose level Middle, time 7 day
[3] = 300 mg/kg, […], dose level Middle, time 14 day
[4] = 300 mg/kg, […], dose level Middle, time 28 day
[5] = 1000 mg/kg, 72 h, dose level High, time 3 day
[6] = 1000 mg/kg, […], dose level High, time 7 day
[7] = 1000 mg/kg, […], dose level High, time 14 day
[8] = 1000 mg/kg, […], dose level High, time 28 day

COC1=CC(=O)C[C@@H](C)[C@]12Oc1c(Cl)c(OC)cc(OC)c1C2=O [GRISEOFULVIN]
TERMINAL_BW [1]: 228.3 g
APTT [1]: 19.9 s
Bas [1]: 0%
Eos [1]: 1%
Fbg [1]: 220 mg/dL
Hb [1]: 13.6 g/dL
Ht [1]: 40.4%
Lym [1]: 73.2%
MCH [1]: 20.8 pg
MCHC [1]: 33.5%
MCV [1]: 62.1 fL
Mono [1]: 3%
Neu [1]: 22.2%
PT [1]: 12.5 s
Plat [1]: 118.4 x10_4/uL
RBC [1]: 651.8 x10_4/ul
Ret [1]: 6.7%
WBC [1]: 99.2 x10_2/uL
KIDNEY_L [1]: 0.9 g
KIDNEY_R [1]: 1 g
KIDNEY_TOTAL [1]: 1.9 g
LIVER [1]: 11.3 g
A/G [1]: 1.6
ALP [1]: 836.2 IU/L
ALT [1]: 44.4 IU/L
AST [1]: 68.2 IU/L
BUN [1]: 13.8 mg/dL
CRE [1]: 0.4 mg/dL
Ca [1]: 10.8 mg/dL
Cl [1]: 104.4 meq/L
DBIL [1]: 0.084 mg/dL
GLC [1]: 218.2 mg/dL
IP [1]: 7.6 mg/dL
K [1]: 3.8 meq/L
LDH [1]: 160.4 IU/L
Na [1]: 141.2 meq/L
PL [1]: 141.6 mg/dL
RALB [1]: 3.4 g/dL
TBIL [1]: 0.1 mg/dL
TC [1]: 80.4 mg/dL
TG [1]: 69 mg/dL
TP [1]: 5.6 g/dL
gamma-GTP [1]: 1.2 IU/L
TERMINAL_BW [2]: 261.2 g
TERMINAL_BW [3]: 309.7 g
TERMINAL_BW [4]: 406.6 g
APTT [2]: 19 s
Bas [2]: 0%
Eos [2]: 0.6%
Fbg [2]: 224 mg/dL
Hb [2]: 13.7 g/dL
Ht [2]: 40.7%
Lym [2]: 76.6%
MCH [2]: 21.2 pg
MCHC [2]: 33.7%
MCV [2]: 62.9 fL
Mono [2]: 3%
Neu [2]: 18.6%
PT [2]: 12.3 s
Plat [2]: 140.6 x10_4/uL
RBC [2]: 646.8 x10_4/ul
Ret [2]: 5.7%
WBC [2]: 118 x10_2/uL
APTT [3]: 19.1 s
Bas [3]: 0%
Eos [3]: 1%
Fbg [3]: 228.6 mg/dL
Hb [3]: 14.2 g/dL
Ht [3]: 42.2%
Lym [3]: 82%
MCH [3]: 20.9 pg
MCHC [3]: 33.7%
MCV [3]: 61.9 fL
Mono [3]: 2.8%
Neu [3]: 13.6%
PT [3]: 12.2 s
Plat [3]: 115.6 x10_4/uL
RBC [3]: 682 x10_4/ul
Ret [3]: 2.8%
WBC [3]: 104.2 x10_2/uL
APTT [4]: 23.1 s
Bas [4]: 0%
Eos [4]: 1%
Fbg [4]: 215.8 mg/dL
Hb [4]: 15.2 g/dL
Ht [4]: 44.7%
Lym [4]: 81%
MCH [4]: 19.9 pg
MCHC [4]: 34%
MCV [4]: 58.8 fL
Mono [4]: 3.2%
Neu [4]: 14.4%
PT [4]: 12.6 s
Plat [4]: 108.5 x10_4/uL
RBC [4]: 761 x10_4/ul
Ret [4]: 2.7%
WBC [4]: 136.8 x10_2/uL
KIDNEY_L [2]: 1.1 g
KIDNEY_R [2]: 1.1 g
KIDNEY_TOTAL [2]: 2.2 g
KIDNEY_L [3]: 1.3 g
KIDNEY_R [3]: 1.3 g
KIDNEY_TOTAL [3]: 2.6 g
KIDNEY_L [4]: 1.4 g
KIDNEY_R [4]: 1.3 g
KIDNEY_TOTAL [4]: 2.7 g
LIVER [2]: 12.8 g
LIVER [3]: 14.8 g
LIVER [4]: 17.3 g
A/G [2]: 1.4
ALP [2]: 848 IU/L
ALT [2]: 35.6 IU/L
AST [2]: 58.4 IU/L
BUN [2]: 13.4 mg/dL
CRE [2]: 0.4 mg/dL
Ca [2]: 10.7 mg/dL
Cl [2]: 104 meq/L
DBIL [2]: 0.08 mg/dL
GLC [2]: 207.6 mg/dL
IP [2]: 7.5 mg/dL
K [2]: 3.7 meq/L
LDH [2]: 136.6 IU/L
Na [2]: 142.6 meq/L
PL [2]: 122.8 mg/dL
RALB [2]: 3.4 g/dL
TBIL [2]: 0.1 mg/dL
TC [2]: 70.4 mg/dL
TG [2]: 60 mg/dL
TP [2]: 5.8 g/dL
gamma-GTP [2]: 0.8 IU/L
A/G [3]: 1.5
ALP [3]: 784.6 IU/L
ALT [3]: 32 IU/L
AST [3]: 51.4 IU/L
BUN [3]: 14.8 mg/dL
CRE [3]: 0.6 mg/dL
Ca [3]: 10.6 mg/dL
Cl [3]: 102.8 meq/L
DBIL [3]: 0.078 mg/dL
GLC [3]: 221.6 mg/dL
IP [3]: 7.5 mg/dL
K [3]: 4.3 meq/L
LDH [3]: 112.2 IU/L
Na [3]: 140.2 meq/L
PL [3]: 142.6 mg/dL
RALB [3]: 3.5 g/dL
TBIL [3]: 0.1 mg/dL
TC [3]: 82.2 mg/dL
TG [3]: 59.6 mg/dL
TP [3]: 5.9 g/dL
gamma-GTP [3]: 1 IU/L
A/G [4]: 1.3
ALP [4]: 565.4 IU/L
ALT [4]: 34.8 IU/L
AST [4]: 55.2 IU/L
BUN [4]: 15.6 mg/dL
CRE [4]: 0.5 mg/dL
Ca [4]: 10.6 mg/dL
Cl [4]: 103 meq/L
DBIL [4]: 0.07 mg/dL
GLC [4]: 237.6 mg/dL
IP [4]: 7.3 mg/dL
K [4]: 3.7 meq/L
LDH [4]: 159.8 IU/L
Na [4]: 140.6 meq/L
PL [4]: 125.8 mg/dL
RALB [4]: 3.4 g/dL
TBIL [4]: 0.1 mg/dL
TC [4]: 70.4 mg/dL
TG [4]: 83 mg/dL
TP [4]: 6 g/dL
gamma-GTP [4]: 1 IU/L
TERMINAL_BW [5]: 225 g
APTT [5]: 21.1 s
Bas [5]: 0%
Eos [5]: 1%
Fbg [5]: 220.8 mg/dL
Hb [5]: 13.5 g/dL
Ht [5]: 39.9%
Lym [5]: 79.2%
MCH [5]: 21.2 pg
MCHC [5]: 33.8%
MCV [5]: 62.6 fL
Mono [5]: 2.4%
Neu [5]: 17%
PT [5]: 12.5 s
Plat [5]: 122 x10_4/uL
RBC [5]: 637.2 x10_4/ul
Ret [5]: 6.9%
WBC [5]: 108.3 x10_2/uL
KIDNEY_L [5]: 1 g
KIDNEY_R [5]: 1 g
KIDNEY_TOTAL [5]: 2 g
LIVER [5]: 11.5 g
A/G [5]: 1.6
ALP [5]: 1064.4 IU/L
ALT [5]: 40.6 IU/L
AST [5]: 63.8 IU/L
BUN [5]: 13.8 mg/dL
CRE [5]: 0.4 mg/dL
Ca [5]: 10.8 mg/dL
Cl [5]: 103.6 meq/L
DBIL [5]: 0.074 mg/dL
GLC [5]: 213.4 mg/dL
IP [5]: 7.8 mg/dL
K [5]: 3.8 meq/L
LDH [5]: 184.2 IU/L
Na [5]: 140.2 meq/L
PL [5]: 125.8 mg/dL
RALB [5]: 3.4 g/dL
TBIL [5]: 0.1 mg/dL
TC [5]: 72.6 mg/dL
TG [5]: 45 mg/dL
TP [5]: 5.6 g/dL
gamma-GTP [5]: 1.4 IU/L
TERMINAL_BW [6]: 266.7 g
TERMINAL_BW [7]: 318.3 g
TERMINAL_BW [8]: 423.7 g
APTT [6]: 21 s
Bas [6]: 0%
Eos [6]: 0.8%
Fbg [6]: 231.6 mg/dL
Hb [6]: 13.3 g/dL
Ht [6]: 38.9%
Lym [6]: 79.2%
MCH [6]: 21.5 pg
MCHC [6]: 34.2%
MCV [6]: 62.9 fL
Mono [6]: 3%
Neu [6]: 16.2%
PT [6]: 12.4 s
Plat [6]: 145.2 x10_4/uL
RBC [6]: 618 x10_4/ul
Ret [6]: 6.6%
WBC [6]: 110.8 x10_2/uL
APTT [7]: 20.2 s
Bas [7]: 0%
Eos [7]: 1%
Fbg [7]: 229.6 mg/dL
Hb [7]: 14.2 g/dL
Ht [7]: 42.1%
Lym [7]: 79.8%
MCH [7]: 21 pg
MCHC [7]: 33.8%
MCV [7]: 62 fL
Mono [7]: 3%
Neu [7]: 15.2%
PT [7]: 12.6 s
Plat [7]: 114.7 x10_4/uL
RBC [7]: 678.4 x10_4/ul
Ret [7]: 2.8%
WBC [7]: 112.6 x10_2/uL
APTT [8]: 24.8 s
Bas [8]: 0%
Eos [8]: 1%
Fbg [8]: 230.8 mg/dL
Hb [8]: 14.6 g/dL
Ht [8]: 43.2%
Lym [8]: 84.4%
MCH [8]: 20.4 pg
MCHC [8]: 33.9%
MCV [8]: 60.1 fL
Mono [8]: 2.4%
Neu [8]: 11.4%
PT [8]: 13 s
Plat [8]: 113.5 x10_4/uL
RBC [8]: 718.4 x10_4/ul
Ret [8]: 3.3%
WBC [8]: 158.4 x10_2/uL
KIDNEY_L [6]: 1.1 g
KIDNEY_R [6]: 1.1 g
KIDNEY_TOTAL [6]: 2.3 g
KIDNEY_L [7]: 1.3 g
KIDNEY_R [7]: 1.3 g
KIDNEY_TOTAL [7]: 2.6 g
KIDNEY_L [8]: 1.6 g
KIDNEY_R [8]: 1.5 g
KIDNEY_TOTAL [8]: 3.1 g
LIVER [6]: 13.5 g
LIVER [7]: 14.6 g
LIVER [8]: 19.4 g
A/G [6]: 1.3
ALP [6]: 845.8 IU/L
ALT [6]: 31.6 IU/L
AST [6]: 56.8 IU/L
BUN [6]: 15.2 mg/dL
CRE [6]: 0.4 mg/dL
Ca [6]: 10.8 mg/dL
Cl [6]: 103.8 meq/L
DBIL [6]: 0.064 mg/dL
GLC [6]: 207 mg/dL
IP [6]: 7.3 mg/dL
K [6]: 3.8 meq/L
LDH [6]: 150.2 IU/L
Na [6]: 142 meq/L
PL [6]: 126.8 mg/dL
RALB [6]: 3.4 g/dL
TBIL [6]: 0.1 mg/dL
TC [6]: 76.4 mg/dL
TG [6]: 45.4 mg/dL
TP [6]: 5.9 g/dL
gamma-GTP [6]: 1.2 IU/L
A/G [7]: 1.4
ALP [7]: 803.4 IU/L
ALT [7]: 32 IU/L
AST [7]: 56 IU/L
BUN [7]: 14.6 mg/dL
CRE [7]: 0.5 mg/dL
Ca [7]: 10.8 mg/dL
Cl [7]: 103 meq/L
DBIL [7]: 0.076 mg/dL
GLC [7]: 205.2 mg/dL
IP [7]: 7.4 mg/dL
K [7]: 4.2 meq/L
LDH [7]: 135.6 IU/L
Na [7]: 140.6 meq/L
PL [7]: 138.6 mg/dL
RALB [7]: 3.4 g/dL
TBIL [7]: 0.1 mg/dL
TC [7]: 81.4 mg/dL
TG [7]: 55.4 mg/dL
TP [7]: 5.9 g/dL
gamma-GTP [7]: 1 IU/L
A/G [8]: 1.3
ALP [8]: 500.8 IU/L
ALT [8]: 39.2 IU/L
AST [8]: 55 IU/L
BUN [8]: 14.8 mg/dL
CRE [8]: 0.5 mg/dL
Ca [8]: 10.5 mg/dL
Cl [8]: 103 meq/L
DBIL [8]: 0.062 mg/dL
GLC [8]: 234.6 mg/dL
IP [8]: 7.3 mg/dL
K [8]: 3.7 meq/L
LDH [8]: 159 IU/L
Na [8]: 140.6 meq/L
PL [8]: 138 mg/dL
RALB [8]: 3.4 g/dL
TBIL [8]: 0.1 mg/dL
TC [8]: 88.6 mg/dL
TG [8]: 38 mg/dL
TP [8]: 6.2 g/dL
gamma-GTP [8]: 0.8 IU/L
